The text below walks through data of US5017723A, “Substituted ethylamines, their preparation process, their use as medicine and their synthesising agents” (Jouveinal S.A., priority 1990, dated 1991).

Structures are written as SMILES. Structures can show the parent of a compound that is named as a salt. Where two headings read alike, the source gives them in different places.

This experiment concerns convulsion induced by picrotoxine in mice. Description: Protection against picrotoxine-induced convulsion (suppression of the tonic extension phase). Particulars: for responders at 50 mg/kg / responders at 100 mg/kg / ED50: Mus musculus; for responders at 50 mg/kg: 0.5 h, read-out: i.p.: % prot. (percentage of protected animals), 50 mg/kg i.p., picrotoxine 24 mg/kg i.p. 30 min later; for responders at 100 mg/kg: 1 h, read-out: p.o.: % prot. (percentage of protected animals), 100 mg/kg p.o., picrotoxine 24 mg/kg i.p. 60 min later; for i.p.: % prot. (percentage of protected animals): 50 mg/kg i.p., picrotoxine 24 mg/kg i.p. 30 min later. It counts as in vivo, male Swiss mice. An excerpt:
The psychotropic properties of the compounds have been determined by the protection of the induced convulsion by picrotoxine for mice, which is achieved by the method derived from that of Krall et al., "Epilepsia", 1978, 19, p. 409-428.
The administration of picrotoxine caused a convulsive crisis in the animal characterised by a myoclonic extension syndrome followed by the extension of the limbs causing the animal to die. Certain substances, particularly those active on the complex GABA/benzodiazepines/Cl-ionophore makes it possible to protect the animals from this convulsive crisis.
In practice the study is carried out on batches of 10 male "Swiss" mice weighing approximately 20 g, which are administered with the product to be studied in aqueous solution either by intraperitoneal route (i.p.) at the rate of 50 mg/kg and in a volume of 0.2 ml of solution per animal, or by oral route (p.o) in a volume of 2.0 ml of solution per animal.
An injection of a solution of picrotoxine at the rate of 24 mg/kg in a volume of 0.2 ml per animal is then administered by interperitoneal route, either 30 minutes after administering the product by interperitoneal route or 60 minutes after administering the product by oral route. The dose of the product injected causing a clonic crisis, which results in untreated animals dying. The suppression of the extension tonic phase in the animals treated under the conditions of the test is observed. The results are expressed:
either in percentages of protected animals of this phase to the reaction of 50 mg/kg of the compound of the study administered by i.p. route or 100 mg/kg by p.o route,
or in DE50 for each of these routes, which is the efficient dosage of the test compound expressed in mg/kg protecting 50% of the animals of this extension phase. The significant value of the results being generally indicated in the following manner:
* Significant result at p<0.05
** Significant result at p<0.01
*** Significant highly significant at p<0.001.

Where [1] appears, read: ip, * p<0.05, ** p<0.01, *** p<0.001.
[2] abbreviates: po, * p<0.05, ** p<0.01, *** p<0.001.
[3] abbreviates: * p<0.05, ** p<0.01, *** p<0.001.

Turning to `CCC(CC=Cc1cccs1)(c1cccs1)N(C)C` (stereo not drawn) [Example 65, N,N-dimethyl-a-ethyl-a-[3-(2-thienyl)-2-propenyl]-2-thienylmethylamine], under setting [1], the responders at 50 mg/kg is 90%. In addition, the responders at 100 mg/kg under setting [2] was found to be 50%. For `CCC(N)(CC=Cc1ccccc1)c1ccccc1` (stereo not drawn) [Example 3, a-cinnamyl-a-ethyl-benzylamine], in that order: 80% and 100%. For `CCC(N)(CC=Cc1ccccc1)c1ccc(Cl)cc1` (single isomer, unassigned; (+)) [Example 17A, (+) a-cinnamyl-a-ethyl-p.chlorobenzylamine], in that order: 80% and 50%. For `CCC(CC=Cc1cccs1)(c1ccsc1)N(C)C` (stereo not drawn) [Example 69, N,N-dimethyl-a-ethyl-a-[3-(2-thienyl)-2-propenyl]-3-thienylmethylamine], in that order: 90% and 80%.

For the compound `CCC(CC=Cc1ccccc1)(c1cccs1)N(C)C` (stereo not drawn) [Example 62, a-cinnamyl-N,N-dimethyl-a-ethyl-2-thienylmethylamine], the responders at 100 mg/kg under setting [2] came to 80%. Consider `CCC(CC=Cc1ccccc1)(c1ccccc1)N(C)C` (single isomer, unassigned; (+)) [Example 50, (+) a-cinnamyl-N,N-dimethyl-a-ethyl-benzylamine], for which the “i.p.: % prot. (percentage of protected animals)” value under setting [3] was determined as 100%.

`CCC(N)(CC=Cc1ccccc1)c1ccc(OC)cc1` (stereo not drawn) [Example 8, a-cinnamyl-a-ethyl-p.metoxybenzylamine]: the responders at 50 mg/kg under setting [1] amounted to 80%.

Consider `CCC(CC=Cc1ccccc1)(c1ccc(Cl)c(Cl)c1)N(C)C` (stereo not drawn) [Example 32, a-cinnamyl-N,N-dimethyl-a-ethyl-(3,4-dichloro)benzylamine], for which the responders at 50 mg/kg under setting [1] is 50%. The responders at 100 mg/kg under setting [2] came out at 60%.

As for `CCC(CC=Cc1ccccc1)(NC)c1ccccc1` (stereo not drawn) [Example 18, a-cinnamyl-a-ether-N-methyl-benzylamine], the responders at 50 mg/kg under setting [1] is 80%. Also, under setting [2], the responders at 100 mg/kg turned out to be 100%. As for `CCCCCC(CC=Cc1ccccc1)(c1ccccc1)N(C)C` (stereo not drawn) [Example 42, a-cinnamyl-N,N-dimethyl-a-pentyl-benzylamine], for the setting “po, read-out: p.o.: DE50”, the ED50 was 65 mg/kg. As to `CCC(CC=Cc1ccccc1)(NC)c1cccc(C(F)(F)F)c1` (stereo not drawn) [Example 21, a-cinnamyl-a-ethyl-N-methyl-(m.trifluoromethyl)benzylamine], the responders at 50 mg/kg under setting [1] came out at 90%. Besides, under setting [2], the responders at 100 mg/kg was 70%. Take `CCC(N)(CC=Cc1ccccc1)c1ccccc1` (single isomer, unassigned) [Example 16B, (+) tartrate of (-)a-cinnamyl-a-ethyl benzylamine]: the “i.p.: % prot. (percentage of protected animals)” value under setting [3] is 100%. Further, the “p.o.: % prot. (percentage of protected animals)” value (100 mg/kg p.o., picrotoxine 24 mg/kg i.p. 60 min later, * p<0.05, ** p<0.01, *** p<0.001) was determined as 100%. Regarding `CN(C)C(C)(CC=Cc1ccc(Cl)c(Cl)c1)c1ccccc1` (stereo not drawn) [Example 48, a-(3.4 dichloro)cinnamyl-N,N-dimethyl-a-methyl-benzylamine], the responders at 50 mg/kg under setting [1] is 90%. For the compound `CCC(CC=Cc1ccccc1)(c1ccco1)N(C)C` (stereo not drawn) [Example 59, a-cinnamyl-N,N-dimethyl-a-ethyl-2-furfurylamine], under setting [1], the responders at 50 mg/kg amounted to 90%. Also, the responders at 100 mg/kg under setting [2] worked out at 100%. For the compound `CCC(N)(CC=Cc1ccccc1)c1cccc(C(F)(F)F)c1` (stereo not drawn) [Example 7, a-cinnamyl-a-ethyl-(m.trifluoromethyl)benzylamine], the responders at 50 mg/kg under setting [1] came to 100%. On to `CCC(CC=Cc1ccccc1)(NC)c1ccccc1` (single isomer, unassigned; (+)) [Example 29, (+) a-cinnamyl-a-ethyl-N-methyl benzylamine], for which the “i.p.: % prot. (percentage of protected animals)” value under setting [3] is 100%. Take `CCC(C[C@@H]1C[C@H]1c1ccccc1)(c1cc(OC)c(OC)c(OC)c1)N(C)C` (relative stereo) [Example 54, trans N,N-dimethyl-a-ethyl-a-(2-phenyl-1-cyclopropylmethyl)-3,4,5-trimethoxybenzylamine]: the responders at 50 mg/kg under setting [1] turned out to be 70%.

As for `CCC(N)(CC=Cc1ccccc1)c1ccc(C)cc1` (stereo not drawn) [Example 6, a-cinnamyl-a-ethyl-p.methylbenzylamine], the responders at 50 mg/kg under setting [1] is 70%. For the same compound, the responders at 100 mg/kg under setting [2] was found to be 70%.

As for `CCC(CC=Cc1ccsc1)(c1ccsc1)N(C)C` (stereo not drawn) [Example 70, N.N-dimethyl-a-ethyl-a-[3-(3-thienyl)-2-propenyl]-3-thienylmethylamine], the responders at 50 mg/kg under setting [1] came out at 80%. In addition, the responders at 100 mg/kg under setting [2] was determined as 100%. Take `CCC(N)(CC=Cc1ccc(Cl)c(Cl)c1)c1cccc(C(F)(F)F)c1` (stereo not drawn) [Example 15, a-(3',4'-dichloro)cinnamyl-a-ethyl-m.trifluoromethylbenzylamin]: the ED50 (ip, read-out: i.p.: DE50) is greater than 25 mg/kg.

Take `CCC(C[C@@H]1C[C@H]1c1ccccc1)(c1cccs1)N(C)C` (relative stereo) [Example 63, trans N,N-dimethyl-a-ethyl-a-(2-phenyl-1-cyclopropylmethyl)-2-thienylmethylmaine]: the responders at 50 mg/kg under setting [1] turned out to be 60%. The responders at 100 mg/kg under setting [2] was found to be 50%. For `CCC(CC=Cc1ccco1)(c1cccs1)N(C)C` (stereo not drawn) [Example 64, N,N-dimethyl-a-ethyl-a-[3-(2-furyl)-2-propenyl]-2-thienylmethylamine], in that order: 70% and 50%.

For the compound `CC(C)C(N)(CC=Cc1ccc(Cl)c(Cl)c1)c1ccccc1` (stereo not drawn) [Example 11, a-(3',4'-dichloro)cinnamyl-a-isopropylbenzylamine], the responders at 50 mg/kg under setting [1] worked out at 70%. For the same compound, under setting [2], the responders at 100 mg/kg is 100%. For `CCC(CC=Cc1ccccc1)(NC)c1ccc(OC)cc1` (stereo not drawn) [Example 22, a-cinnamyl-a-ethyl-N-methyl-p.methoxybenzylamine], in that order: 80% and 100%.

For `CCC(N)(CC=Cc1ccccc1)c1ccccc1` (single isomer, unassigned) [Example 16A, (-) tartrate of (+) a-cinnamyl-a-ethyl-benzylamine], the responders at 50 mg/kg under setting [1] was determined as 90%. For the same compound, under setting [2], the responders at 100 mg/kg amounted to 100%.

As to `CC(C)C(CC=Cc1ccccc1)(c1ccccc1)N(C)C` (stereo not drawn) [Example 41, a-cinnamyl-N,N-dimethyl-a-isopropylbenzylamine], the ED50 (po, read-out: p.o.: DE50) worked out at 78.4 mg/kg. `CCC(N)(CC=Cc1ccccc1)c1ccc(Cl)c(Cl)c1` (stereo not drawn) [Example 5, a-cinnamyl-a-ethyl-3,4 dichlorobenzylamine]: the responders at 50 mg/kg under setting [1] is 50%. In the case of `CCC(CC=Cc1ccccc1)(c1ccc(C(F)(F)F)cc1)N(C)C` (stereo not drawn) [Example 34, a-cinnamyl-N,N-dimethyl-a-ethyl-p.trifluoromethylbenzylamine], the responders at 50 mg/kg under setting [1] turned out to be 80%. The responders at 100 mg/kg under setting [2] is 60%. For `CCC(CC=Cc1ccsc1)(c1ccccc1)N(C)C` (stereo not drawn) [Example 56, N,N-dimethyl-a-ethyl-a-[30(3-thienyl)-2-propenyl]-benzylamine], in that order: 70% and 80%. For `CCC(CC=Cc1ccccc1)(c1ccccc1)N(C)C` (single isomer, unassigned; (-)) [Example 49, (-)a-cinnamyl-N,N-dimethyl-a-ethylbenzylamine], in that order: 100% and 100%. Consider `CCCN(C)C(CC)(CC=Cc1ccccc1)c1ccccc1` (stereo not drawn) [Example 47, a-cinnamyl-a-ethyl-N-methyl-N-propylbenzylamine], for which the ED50 (ip, read-out: i.p.: DE50) came out at 58.2 mg/kg and the ED50 (po, read-out: p.o.: DE50) came to 65 mg/kg. On to `CN(C)C(C)(CC=Cc1ccccc1)c1ccccc1` (stereo not drawn) [Example 40, a-cinnamyl-N,N-dimethyl-a-methyl-benzylamine], for which the ED50 was 16.6 mg/kg (ip, read-out: i.p.: DE50) and 37.7 mg/kg (po, read-out: p.o.: DE50).

`CCC(N)(CC=Cc1ccc(Cl)c(Cl)c1)c1ccccc1` (stereo not drawn) [Example 10, a-(3',4'-dichloro) cinnamyl-a-ethyl-benzylamine]: under setting [1], the responders at 50 mg/kg amounted to 90%. In the case of `CCC(N)(CC=Cc1ccc(Cl)c(Cl)c1)c1ccc(OC)cc1` (stereo not drawn) [Example 13], the ED50 (ip, read-out: i.p.: DE50) is 23.2 mg/kg. The responders at 100 mg/kg under setting [2] was found to be 50%. Consider `CCC(N)(CC=Cc1ccccc1)c1ccc(Cl)cc1` (stereo not drawn) [Example 4, a-cinnamyl-a-ethyl-p.chlorobenzylamine], for which the responders at 50 mg/kg under setting [1] came out at 60%.
